Laboratory results taken from patent US6977272B2, “Method for antagonizing inhibition effects of alcohol on cell adhesion” (President and Fellows of Harvard College, priority 2002, dated 2005).
“And” between values parts separate entries of the source, which are not always exact repeats. Identical values can stand only once. Like-named read-outs stand apart in the source and are kept apart here.

Experiments:
[1] = obtained from a published source or calculated from published octanol/water partition coefficients (divided by five); cited from earlier work
[2] = target: T1, L1-mediated cell-cell adhesion in human L1-transfected NIH/3T3 cells (2B2-L1, 2A2-L1) (Homo sapiens, UniProt P32004); parameters: antagonist at the aqueous concentration (μM); Antagonist Activity Butanol % ± SEM; 1-alc; conditions: 3-buten-1-ol alone (Wilkemeyer et al., 2000); cited from earlier work
T1 sequence (P32004 whole entry): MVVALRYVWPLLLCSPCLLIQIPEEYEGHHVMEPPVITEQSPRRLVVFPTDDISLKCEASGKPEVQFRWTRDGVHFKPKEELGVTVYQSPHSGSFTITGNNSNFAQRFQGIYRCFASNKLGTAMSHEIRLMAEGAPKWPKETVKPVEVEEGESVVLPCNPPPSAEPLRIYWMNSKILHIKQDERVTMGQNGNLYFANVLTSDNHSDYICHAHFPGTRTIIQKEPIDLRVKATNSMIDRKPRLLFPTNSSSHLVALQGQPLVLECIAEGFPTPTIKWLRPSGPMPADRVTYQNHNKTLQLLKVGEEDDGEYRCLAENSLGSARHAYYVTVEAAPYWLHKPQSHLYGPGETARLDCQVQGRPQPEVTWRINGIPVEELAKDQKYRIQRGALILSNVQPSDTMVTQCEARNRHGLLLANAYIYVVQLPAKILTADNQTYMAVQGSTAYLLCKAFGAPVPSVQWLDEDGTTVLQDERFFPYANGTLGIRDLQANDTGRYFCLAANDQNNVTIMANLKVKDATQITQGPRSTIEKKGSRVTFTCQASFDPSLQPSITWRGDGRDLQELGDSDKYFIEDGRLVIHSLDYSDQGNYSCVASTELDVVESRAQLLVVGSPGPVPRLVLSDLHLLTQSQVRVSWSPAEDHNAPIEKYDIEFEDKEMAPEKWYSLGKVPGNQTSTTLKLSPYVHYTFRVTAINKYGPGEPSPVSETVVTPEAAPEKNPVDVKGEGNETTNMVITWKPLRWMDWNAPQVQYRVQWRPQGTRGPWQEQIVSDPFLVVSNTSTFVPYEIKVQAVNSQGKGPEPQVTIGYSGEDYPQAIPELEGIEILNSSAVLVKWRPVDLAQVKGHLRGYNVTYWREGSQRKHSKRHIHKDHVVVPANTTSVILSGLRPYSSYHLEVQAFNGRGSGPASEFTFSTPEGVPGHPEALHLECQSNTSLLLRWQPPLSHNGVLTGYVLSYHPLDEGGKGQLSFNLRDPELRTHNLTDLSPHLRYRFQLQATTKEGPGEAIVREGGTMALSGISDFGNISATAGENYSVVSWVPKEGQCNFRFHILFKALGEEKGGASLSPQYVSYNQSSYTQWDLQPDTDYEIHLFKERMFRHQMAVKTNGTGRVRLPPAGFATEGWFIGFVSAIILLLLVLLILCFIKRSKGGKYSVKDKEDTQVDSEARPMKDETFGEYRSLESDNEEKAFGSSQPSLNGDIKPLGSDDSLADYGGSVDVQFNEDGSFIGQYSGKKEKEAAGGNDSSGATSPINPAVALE

[3] = tested on: NIH/3T3 cells transfected with an empty vector (Vec-1A5); experiment: Aggregation assay on NIH/3T3 cells transfected with an empty vector (non-L1 component of cell adhesion); type: cell-based, murine; conditions: four independent assays, each compound at the concentration given in the source, control 15±1
Procedure: (§1) NIH/3T3 cells were cultured at 37° C. in Dulbecco's […] Eagle medium (DMEM) (Invitrogen, Carlsbad, Calif.) supplemented with 10% normal calf serum (Intergen, Purchase, N.Y.) and 400 μg/ml G418 (Life Technologies), in an atmosphere of 90% air and 10% CO2. Three subclones were utilized in these studies: 2B2-L1, 2A2-L1 and Vec-1A5.
(§2) Cells were detached by gentle agitation in calcium-free and magnesium-free PBS supplemented with 0.1 mg/ml. DNase, mechanically dissociated to obtain a single-cell suspension, and diluted to 350,000 cells/ml. One ml of the cell suspension was added per well (4.5 cm^2) to a 12-well plate. Agonists and test antagonists were added simultaneously, plates were sealed with parafilm to prevent evaporation, and the cells were gently shaken for 30 minutes at room temperature or on ice. Cells were viewed at a final magnification of 200× and each well was scored for single and adherent cells in five to six microscopic fields of view. Approximately 100 cells per field of view and 600 cells per well were counted. The percent of adherent cells was calculated for each microscopic field of view and then averaged for each well.
Each candidate antagonist was tested at a single aqueous concentration that was calculated to produce a molar membrane concentration equivalent to that produced by a buffer solution of 100 mM ethanol (ECEQ).

[4] = target: T1, L1-mediated cell-cell adhesion in human L1-transfected NIH/3T3 cells (2B2-L1, 2A2-L1); experiment: Cell aggregation (cell-cell adhesion) assay in ethanol-sensitive, human L1-transfected NIH/3T3 cells; type: cell-based; parameters: antagonist at the aqueous concentration (μM); Antagonist Activity Butanol % ± SEM; 1-alc; effect of increasing concentrations of 1-butanol on the antagonist activity (in words): dose or concentration left out as unconfirmed; conditions: for IC50: read-out: IC50 concentration (antagonist, used in FIG. 5A); for effect of increasing concentrations of 1-butanol on the antagonist activity (in words): 2 to […] mM 1-butanol, single antagonist concentration (FIG. 5A, 5B); for antagonist effect at higher concentrations (in words): 2 μM to 10 μM; for antagonist activity against ethanol (in words): test concentrations of FIG. 3 / Table 1; for agonist or antagonist activity (in words): at the ECEQ and at 10 times the ECEQ
Procedure: as §1
Cell adhesion assays were performed in the absence and presence of the compounds, listed below in Table 1. […] The aqueous concentration of each antagonist was calculated to produce membrane concentrations equivalent to 100 mM ethanol. Membrane/buffer partition coefficients (Pm/b) were obtained or calculated from published octanol/water partition coefficients.
as §2
Agonists and antagonists were initially tested at aqueous concentrations that were calculated to produce molar membrane concentrations (˜10 mM) equivalent to those produced by an aqueous concentration of 100 mM ethanol (ECEQ).
L1-mediated cell-cell adhesion was defined as the difference in percent of adherent cells between an L1-transfected cell line (2B2-L1 or 2A2-L1) and a vector-transfected cell line (Vec-1A5).
Agonists include compounds that inhibit L1-mediated cell-cell adhesion.

[5] = Membrane/buffer partition coefficient (Pm/b); type: physicochemical; conditions: from Pm/b of Table 1
Procedure: Cell adhesion assays were performed in the absence and presence of the compounds, listed below in Table 1. […] Membrane/buffer partition coefficients (Pm/b) were obtained or calculated from published octanol/water partition coefficients. The compounds are sorted by decreasing membrane/buffer partition coefficients.
Calculations were based on membrane-buffer partition coefficients (Pm/b), which were obtained from a published source (McCreery and Hunt, 1978) or were derived by dividing the octanol/water partition coefficient by five.

[6] = EC50 membrane (based on calculated membrane concentrations, expressed relative to 1-pentanol), against 100 mM ethanol, calculated from the Pm/b (FIG. 3)
[7] = approximate EC50 (against 2 mM 1-butanol), antagonist concentration used in FIG. 5B
[8] = against 2 mM butanol, linear regression of concentration-response curves (FIG. 4), read-out: aqueous concentration that produced half maximal effect (antagonism)
[9] = against 2 mM butanol, not adjusted for membrane concentration

Compound: CC(C)c1cccc(C(C)C)c1O [2,6-di-isopropyl phenol, 2,6-di-isopropylphenol, reference compound]
- P(m/b) membrane/buffer partition coefficient [1]: 1233

Compound: C=CCCO [3-buten-1-ol]
- effect on L1-mediated cell-cell adhesion, compound alone (in words) [2]: no effect
- mean±S.E.M. percent cell adhesion [3]: 14±0%
- P(m/b) membrane/buffer partition coefficient [1]: 1
- IC50 ([4]; antagonism of 1-butanol inhibition of cell-cell adhesion): 3000 µM
- EC50 ([4]; read-out: approximate EC50 (against 2 mM 1-butanol), antagonist concentration used in FIG. 5B): ~3000 µM

Compound: CCCC(C)(C)O [2-methyl-2-pentanol]
- P(m/b) membrane/buffer partition coefficient [1]: 5.2
- effect of increasing concentrations of 1-butanol on the antagonist activity (in words) [4]: did not eliminate the antagonist activity

Compound: CCCCCCCCCCCCCCO [1-tetradecanol]
- P(m/b) membrane/buffer partition coefficient [1]: 112468
- antagonist effect at higher concentrations (in words) [4]: inactive
- antagonist activity against ethanol (in words) ([4]; against 100 mM ethanol): only minimal antagonist activity
- agonist or antagonist activity (in words) [4]: neither agonists nor antagonists

Compound: CCCCCCCCCCCCCCCO [1-pentadecanol]
- P(m/b) membrane/buffer partition coefficient [1]: 347560
- antagonist effect at higher concentrations (in words) [4]: inactive
- antagonist activity against ethanol (in words) ([4]; against 100 mM ethanol): completely inactive
- antagonist activity against ethanol (in words) ([4]; against 100 mM ethanol, listed as 1-Pentadecanol): no antagonist activity
- agonist or antagonist activity (in words) [4]: neither agonists nor antagonists

Compound: CCCC(C)O (stereo not shown) [2-pentanol]
- P(m/b) membrane/buffer partition coefficient [1]: 4.38
- effect of increasing concentrations of 1-butanol on the antagonist activity (in words) [4]: did not eliminate the antagonist activity

Compound: CCCCCCCCCCCO [1-undecanol]
- P(m/b) membrane/buffer partition coefficient [1]: 3810
- EC50 [4]: 0.03 µM
- EC50 [4, 6]: 20 µM

Compound: CCCCCCCCO [1-octanol]
- mean±S.E.M. percent cell adhesion [3]: 12±1%
- P(m/b) membrane/buffer partition coefficient [1]: 189
- lipid solubility relative to 1-pentanol [5]: thirty-seven-fold more lipid soluble
- EC50 [4]: 3 µM
- EC50 [4, 6]: 98 µM
- antagonist potency relative to 1-pentanol ([4]; FIG. 3 and Wilkemeyer et al., 2000): two hundred-fold more potent
- EC50 [4, 7]: ~5 µM
- IC50 [4]: 5 µM

Compound: CC(O)C1CC1 (stereo not shown) [cyclopropylethanol]
- P(m/b) membrane/buffer partition coefficient [1]: 0.83
- agonist or antagonist activity (in words) [4]: neither agonists nor antagonists

Compound: CCO [ethanol, reference compound]
- inhibition at 100000 µM ([4]; NIH3T3, read-out: percent inhibition of L1-mediated cell-cell adhesion): 62 ± 7%

Compound: CCCCCO [1-pentanol]
- mean±S.E.M. percent cell adhesion [3]: 16±2%
- P(m/b) membrane/buffer partition coefficient [1]: 5.02
- EC50 [4]: 540 µM
- effect of increasing concentrations of 1-butanol on the antagonist activity (in words) [4]: did not eliminate the antagonist activity
- EC50 [4, 6]: 540 µM
- EC50 [4, 8]: 223 µM
- EC50 [4, 7]: ~700 µM

Compound: CCC(C)O (stereo not shown) [2-butanol]
- antagonist activity (in words) ([4]; 11 mM (ECEQ) 2-butanol): no antagonist activity
- percent inhibition of L1-mediated cell-cell adhesion ([4]; 11 mM (ECEQ) 2-butanol alone, n=6): 63±9%

Compound: CC=CCO [2-buten-1-ol]
- percent inhibition of cell adhesion ([4]; 15 mM 2-buten-1-ol alone, n=10): 34±4%
- percent inhibition of cell adhesion ([4]; 15 mM 2-buten-1-ol plus 2 mM 1-butanol, n=11): 35+6%
- antagonism of the actions of 1-butanol and ethanol (in words) ([4]; 15 mM (ECEQ) 2-buten-1-ol): partially antagonized
- inhibition of L1-mediated cell-cell adhesion (in words) ([4]; 15 mM (ECEQ) 2-buten-1-ol): partially inhibited
- antagonism of the actions of 1-butanol or ethanol (in words) ([4]; 150 mM 2-buten-1-ol): neither antagonized nor augmented
- inhibition of L1-mediated cell-cell adhesion (in words) ([4]; 150 mM 2-buten-1-ol): maximally inhibited

Compound: 1-butanol [reference compound]
- mean±S.E.M. percent cell adhesion [3]: 13±2%
- percent of the maximal agonist response ([4]; 2 mM 1-butanol (FIG. 5A)): approximately 90%
- mean percent inhibition of cell adhesion ([4]; 2 mM 1-butanol alone, n=11): 60±5%

Compound: CCCCCCCCCCCCCO [1-tridecanol]
- P(m/b) membrane/buffer partition coefficient [1]: 36394
- EC50 [4]: 0.25 µM
- EC50 [4, 6]: 1620 µM
- fold less potent antagonist than C12 (1-dodecanol) ([4]; against 100 mM ethanol (FIG. 3)): approximately 25 fold

Compound: CCC(O)CC [3-pentanol]
- P(m/b) membrane/buffer partition coefficient [1]: 4.69
- effect of increasing concentrations of 1-butanol on the antagonist activity (in words) [4]: eliminated the antagonist activity

Compound: CCCCCCCCCCCCO [1-dodecanol]
- P(m/b) membrane/buffer partition coefficient [1]: 26979
- EC50 [4, 6]: 140 µM and 28 µM

Compound: CC(C)CCCO [4-methyl-1-pentanol]
- mean±S.E.M. percent cell adhesion [3]: 15±3%
- P(m/b) membrane/buffer partition coefficient [1]: 9.36
- effect of increasing concentrations of 1-butanol on the antagonist activity (in words) [4]: did not eliminate the antagonist activity
- EC50 [4, 8]: 32 µM
- ratio of half-maximal aqueous concentrations versus 1-hexanol [4, 9]: approximately 2.5 times
- ratio of half-maximal aqueous concentrations versus 1-pentanol [4, 9]: approximately 7 fold
- EC50 [4, 7]: ~40 µM

Compound: C[S+](C)[O-] [dimethyl sulfoxide, reference compound]
- mean±S.E.M. percent cell adhesion [3]: 13±0%
- P(m/b) membrane/buffer partition coefficient [1]: 0.012
- inhibition of L1-mediated cell adhesion (in words) ([4]; 120 mM (1%) DMSO): did not inhibit
- agonist or antagonist activity (in words) [4]: neither agonists nor antagonists

Compound: CCCCCCO [1-hexanol]
- EC50 [4, 8]: 80 µM

Compound: OC1CCCC1 [cyclopentanol]
- P(m/b) membrane/buffer partition coefficient [1]: 2.24
- effect of increasing concentrations of 1-butanol on the antagonist activity (in words) [4]: eliminated the antagonist activity

Compound: OCc1ccccc1 [benzyl alcohol]
- P(m/b) membrane/buffer partition coefficient [1]: 2.52
- effect of increasing concentrations of 1-butanol on the antagonist activity (in words) [4]: eliminated the antagonist activity

Compound: CCCCCCCO [1-heptanol]
- P(m/b) membrane/buffer partition coefficient [1]: 51.4
